Data on 26 compounds can be found in ChEMBL document CHEMBL1201862, “PubChem BioAssay data set” (2004).

Test systems include RXF 631; KM-20L2; DMS-273; M19-MEL; XF498; LXFL 529; HOP-18; SNB-78; DLD-1.
Holding throughout (assay): NCI-60 cell line screen, 48 h

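How tested: cells in 96-well plates exposed to compound for 48 hours at five concentrations. GI50: concentration for 50% inhibition of growth.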 The source made the active and inactive calls. Rule as the data show it: active = GI50 up to about 1.1 µM and inactive = higher.

Take `C=CCN(N=O)C(=O)NCCCCC(NC(C)=O)C(=O)NCc1ccccc1` (stereo unspecified): the GI50 with RXF 631, in the assay on KM-20L2, in the assay on DMS-273, with M19-MEL, in the assay with XF498 and with LXFL 529 was > 100 µM (inactive) in each case. In addition, the GI50 with HOP-18 is 80.7 µM (inactive).

As to `c1ccc2c(c1)n1nnnc1c1nnnn21`, the GI50 with RXF 631 was > 100 µM (inactive); in the assay on KM-20L2, 93.8 µM (inactive); in the assay with DMS-273, > 100 µM (inactive); with M19-MEL, > 100 µM (inactive); with XF498, > 100 µM (inactive); with SNB-78, 53.6 µM (inactive). In addition, the GI50 in the assay on LXFL 529 and with DLD-1 was > 100 µM (inactive) in each case.

As for `N/N=C1\C(=O)N(c2ccc(Cl)c(Cl)c2)C(=O)C1C(=O)Nc1ccc(Cl)c(Cl)c1` (stereo unspecified), the GI50 is 59.2 µM (inactive) with RXF 631; 48.4 µM (inactive) with KM-20L2; > 100 µM (inactive) in the assay on M19-MEL; 24.7 µM (inactive) in the assay on SNB-78; 46.5 µM (inactive) in the assay with LXFL 529; 64 µM (inactive) with DLD-1. Moreover, the GI50 in the assay on HOP-18 was 21.6 µM (inactive).

Consider `CC(=O)OC1(C#N)CC2OC1C1C2N1C(=O)c1ccccc1` (stereo unspecified), for which the GI50 in the assay with RXF 631, in the assay with KM-20L2, in the assay with M19-MEL, with XF498, in the assay with SNB-78 and in the assay with LXFL 529 was > 100 µM (inactive) each time. For the same compound, the GI50 in the assay with DLD-1 is > 100 µM (inactive).

Take `NC(=O)c1cc(N2CC2)c([N+](=O)[O-])cc1[N+](=O)[O-]` [TRETAZICAR]: the GI50 in the assay on RXF 631, in the assay on KM-20L2, in the assay on DMS-273, in the assay on M19-MEL, with SNB-78 and in the assay on LXFL 529 was > 100 µM (inactive) in each case.

Regarding `NC(=S)N1N=C2c3ccccc3CC[C@H]2[C@@H]1c1ccc(Cl)cc1`, the GI50 with KM-20L2 was 29.8 µM (inactive); with DMS-273, 24.7 µM (inactive); in the assay with M19-MEL it was 30.6 µM (inactive); with XF498, 26.4 µM (inactive); with SNB-78 it was 87.3 µM (inactive); in the assay on LXFL 529, 21.2 µM (inactive). The GI50 with DLD-1 is 31.7 µM (inactive); in the assay with HOP-18, 18.6 µM (inactive).

Regarding `CC12Nc3ccccc3C1=C(c1ccccc1)CC1C(=O)OC(=O)C12` (stereo unspecified), the GI50 in the assay with RXF 631, with KM-20L2, in the assay on DMS-273, in the assay on M19-MEL, in the assay with XF498 and with SNB-78 was > 100 µM (inactive) each time. In addition, the GI50 in the assay with LXFL 529 and with DLD-1 was > 100 µM (inactive) throughout.

Regarding `CCCOC(=O)C1C(c2ccc(OC)cc2)NC(c2ccc(OC)cc2)C(C(=O)OCCC)S1(=O)=O` (stereo unspecified), the GI50 is > 10 µM (inactive) in the assay on RXF 631; > 10 µM (inactive) with KM-20L2; > 10 µM (inactive) in the assay with DMS-273; 9.18 µM (inactive) in the assay on XF498; > 10 µM (inactive) with SNB-78; > 10 µM (inactive) in the assay on LXFL 529. The GI50 in the assay with DLD-1 and in the assay with HOP-18 was > 10 µM (inactive) each time.

In the case of `Cc1cc(C)c(N)c(C)c1N`, the GI50 in the assay with KM-20L2, in the assay with DMS-273, with M19-MEL, with SNB-78, in the assay on LXFL 529 and in the assay on DLD-1 was > 100 µM (inactive) in each case. Moreover, the GI50 with HOP-18 was > 100 µM (inactive).

Take `O=CN/C=C/c1cccc(O)c1`: the GI50 in the assay on KM-20L2, in the assay on DMS-273, with M19-MEL, in the assay with XF498, in the assay with SNB-78 and with LXFL 529 was > 100 µM (inactive) each time. Further, the GI50 in the assay with DLD-1 and with HOP-18 was > 100 µM (inactive) in each case.

As for `Cc1[nH]c2cc([N+](=O)[O-])ccc2c1[N+](=O)[O-]`, the GI50 is 27.4 µM (inactive) in the assay on KM-20L2, 20.7 µM (inactive) with XF498, 17.2 µM (inactive) with LXFL 529 and 22.6 µM (inactive) with DLD-1.

For the compound `CCCCN[C@H]1C2C3CC4C5CC(C42)C1(C)C53` (stereo partly specified), the GI50 in the assay on KM-20L2, in the assay on DMS-273, in the assay on M19-MEL, in the assay on SNB-78, with LXFL 529 and in the assay with DLD-1 was > 100 µM (inactive) each time. In the assay with HOP-18, the GI50 is > 100 µM (inactive).

Consider `COc1cc2c(oc(=O)c3c4occc4cc(OC)c23)c2cccc(OCc3ccccc3)c12`, for which the GI50 in the assay on KM-20L2 is > 100 µM (inactive); in the assay on DMS-273, 38.9 µM (inactive); in the assay on M19-MEL, 61.5 µM (inactive); in the assay with XF498, 42 µM (inactive); with SNB-78, 37.8 µM (inactive); with LXFL 529, 64.7 µM (inactive). In addition, the GI50 in the assay with DLD-1 and in the assay with HOP-18 was > 100 µM (inactive) in each case.

For the compound `COC(=O)CCC(NC(=S)N/N=C(\C)c1ccc[nH]1)C(=O)OC` (stereo unspecified), the GI50 with KM-20L2, in the assay with DMS-273, with M19-MEL, with XF498, in the assay with SNB-78 and with LXFL 529 was > 100 µM (inactive) in each case. Besides, the GI50 in the assay with DLD-1 and in the assay with HOP-18 was > 100 µM (inactive) throughout.

As for `COc1ccc(CCN2CCC(C#N)(c3ccc(OC)c(OC)c3)CC2)cc1OC`, the GI50 in the assay with KM-20L2 is > 100 µM (inactive); in the assay with DMS-273, > 100 µM (inactive); in the assay with M19-MEL, > 100 µM (inactive); in the assay with XF498 it was 50.2 µM (inactive); in the assay with LXFL 529, > 100 µM (inactive); in the assay on DLD-1, > 100 µM (inactive). Besides, in the assay with HOP-18, the GI50 is > 100 µM (inactive).

Consider `O=C(/C(=C\c1ccccc1)CN1CCOCC1)c1ccc(Br)cc1`, for which the GI50 with KM-20L2 was 2.65 µM (inactive); in the assay with DMS-273 it was 2.88 µM (inactive); in the assay on M19-MEL, 1.73 µM (inactive); with XF498 it was 4.89 µM (inactive); with SNB-78, 5.61 µM (inactive); with LXFL 529, 1.28 µM (inactive). Also, the GI50 is 1.51 µM (inactive) in the assay with DLD-1 and 1.81 µM (inactive) with HOP-18.

Take `CC(C)c1cccc(C(C)C)c1NC(=O)C(=O)CC(=O)CC(c1ccccc1)c1c(O)oc2ccccc2c1=O` (stereo unspecified): the GI50 in the assay with KM-20L2 and in the assay on DLD-1 was > 100 µM (inactive) throughout.

On to `NCCCNc1ccc2c3c(nn2CCNCCO)-c2c(O)ccc(O)c2C(=O)c13`, for which the GI50 is 2.89 µM (inactive) with KM-20L2; 0.366 µM (active) with DMS-273; 1.5 µM (inactive) in the assay with M19-MEL; 0.125 µM (active) in the assay with XF498; 1.42 µM (inactive) with SNB-78; 4.08 µM (inactive) in the assay on DLD-1. Moreover, the GI50 in the assay with HOP-18 is 2.32 µM (inactive).

`COc1ccc(/C=C2/C(=O)N(C(=O)c3ccccc3O)N=C2C)cc1OC`: the GI50 was 24.9 µM (inactive) in the assay on KM-20L2; 1.29 µM (inactive) in the assay on M19-MEL; 1.68 µM (inactive) in the assay on XF498; 0.0453 µM (active) in the assay with SNB-78; 0.303 µM (active) in the assay with LXFL 529; 0.23 µM (active) in the assay with DLD-1.

For the compound `C=C(CN(C)C)C(=O)c1cc(C)ccc1C`, the GI50 in the assay with KM-20L2 is 23 µM (inactive); with DMS-273, 11.7 µM (inactive); in the assay with M19-MEL, 4.81 µM (inactive); in the assay on XF498, 17.9 µM (inactive); in the assay with SNB-78 it was 26.9 µM (inactive); in the assay on LXFL 529, 1.62 µM (inactive). Further, the GI50 in the assay with DLD-1 was 2.28 µM (inactive); in the assay on HOP-18, 4.13 µM (inactive).

Consider `O=NN(CCCl)C(=O)N[C@H]1CCCC[C@@H]1Cl`, for which the GI50 with KM-20L2 was > 100 µM (inactive); in the assay on DMS-273 it was 62.7 µM (inactive); with M19-MEL, 39.7 µM (inactive); in the assay on XF498, > 100 µM (inactive); with LXFL 529 it was > 100 µM (inactive); in the assay on DLD-1 it was > 100 µM (inactive). In addition, in the assay with HOP-18, the GI50 was > 100 µM (inactive).

On to `COc1ccc(C2=C(Cl)c3cc(OC)c(OC)cc3C2OC)cc1OC` (stereo unspecified), for which the GI50 with KM-20L2 is > 100 µM (inactive); with DMS-273, 27.4 µM (inactive); in the assay on M19-MEL, > 100 µM (inactive); with XF498 it was > 100 µM (inactive); in the assay on SNB-78, > 100 µM (inactive); in the assay on LXFL 529, 52.7 µM (inactive). Moreover, the GI50 is 17.9 µM (inactive) in the assay on DLD-1 and > 100 µM (inactive) in the assay on HOP-18.

Take `O=C1CCC(=O)N1Sc1ccccc1`: the GI50 in the assay with RXF 631, in the assay on KM-20L2, in the assay with DMS-273, in the assay with M19-MEL, with SNB-78 and in the assay on DLD-1 was > 100 µM (inactive) each time.

In the case of `CC(=O)/C=C1/c2ccccc2N(C(C)=O)C1O` (stereo unspecified), the GI50 in the assay on KM-20L2, in the assay with DMS-273, in the assay on M19-MEL, with SNB-78, in the assay on LXFL 529 and in the assay on DLD-1 was > 100 µM (inactive) each time. In addition, in the assay with HOP-18, the GI50 is > 100 µM (inactive).

For the compound `COC(=O)c1ccc(N/C=C(/C#N)c2ccsc2)cc1`, the GI50 in the assay on KM-20L2 was 12 µM (inactive); with DMS-273, 14.8 µM (inactive); in the assay on M19-MEL it was 34 µM (inactive); in the assay on SNB-78 it was 15 µM (inactive); with LXFL 529, 12.8 µM (inactive); in the assay on DLD-1 it was 13 µM (inactive).

For the compound `CCCCCCCCCCCC[N+](CCCCCCCCCCCC)=C1SCCS1`, the GI50 was 11.1 µM (inactive) in the assay with RXF 631; 5.28 µM (inactive) with KM-20L2; 3.44 µM (inactive) with DMS-273; 3.29 µM (inactive) with M19-MEL; 3.61 µM (inactive) in the assay on SNB-78; 3.81 µM (inactive) in the assay on LXFL 529. The results for the GI50 in the assay on DLD-1 and in the assay on HOP-18 were 8.47 µM (inactive) and 16.4 µM (inactive), respectively.
